Measured values taken from publication PMC5889476 (Biochimie Open, 2015).

T1: rFKBP22 (E. coli FKBP22) (Escherichia coli, UniProt P0A9L3)
T1 sequence (P0A9L3 1-206): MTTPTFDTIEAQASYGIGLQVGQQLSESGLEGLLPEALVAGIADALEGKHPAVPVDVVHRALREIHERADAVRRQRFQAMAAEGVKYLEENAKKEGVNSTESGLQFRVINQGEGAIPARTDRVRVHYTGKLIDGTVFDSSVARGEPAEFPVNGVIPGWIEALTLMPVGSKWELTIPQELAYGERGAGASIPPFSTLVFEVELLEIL

T2: rFKBP22 (E. coli FKBP22) (Escherichia coli, UniProt P0A9L3, A82P)
T2 sequence (P0A9L3 1-206 A82P): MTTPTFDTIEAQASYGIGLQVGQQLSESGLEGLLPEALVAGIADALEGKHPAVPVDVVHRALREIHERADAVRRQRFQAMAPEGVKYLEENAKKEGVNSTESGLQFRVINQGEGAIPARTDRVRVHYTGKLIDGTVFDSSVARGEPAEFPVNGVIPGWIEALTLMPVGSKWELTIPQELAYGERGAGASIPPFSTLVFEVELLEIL

T3: rFKBP22 (E. coli FKBP22) (Escherichia coli, UniProt P0A9L3, V72P)
T3 sequence (P0A9L3 1-206 V72P): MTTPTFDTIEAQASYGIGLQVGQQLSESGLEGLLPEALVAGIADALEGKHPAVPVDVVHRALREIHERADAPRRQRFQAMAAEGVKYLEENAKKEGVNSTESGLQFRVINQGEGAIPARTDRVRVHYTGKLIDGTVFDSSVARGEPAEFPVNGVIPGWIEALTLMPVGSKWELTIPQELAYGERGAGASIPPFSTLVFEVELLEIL

T4: rFKBP22 (E. coli FKBP22) (Escherichia coli, UniProt P0A9L3, I65P)
T4 sequence (P0A9L3 1-206 I65P): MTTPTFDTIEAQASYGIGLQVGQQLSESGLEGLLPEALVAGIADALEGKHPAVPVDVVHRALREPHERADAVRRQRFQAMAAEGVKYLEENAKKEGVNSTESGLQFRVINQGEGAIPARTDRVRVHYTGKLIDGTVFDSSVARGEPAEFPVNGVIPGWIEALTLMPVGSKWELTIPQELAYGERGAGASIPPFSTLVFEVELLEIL


Key:
rFKBP22 (E. coli FKBP22) [1] = target: T1, rFKBP22 (E. coli FKBP22); test: tryptophan fluorescence quenching titration; type: binding
rFKBP22 (E. coli FKBP22) [2] = target: T2, rFKBP22 (E. coli FKBP22); test: tryptophan fluorescence quenching titration; type: binding
rFKBP22 (E. coli FKBP22) [3] = target: T3, rFKBP22 (E. coli FKBP22); test: tryptophan fluorescence quenching titration; type: binding
rFKBP22 (E. coli FKBP22) [4] = target: T4, rFKBP22 (E. coli FKBP22); test: tryptophan fluorescence quenching titration; type: binding
cross-linking = target: the molecule itself; test: cross-linking

| Kd (rFKBP22 (E. coli FKBP22) [1]) | Kd (rFKBP22 (E. coli FKBP22) [2]) | Kd (rFKBP22 (E. coli FKBP22) [3]) | Kd (rFKBP22 (E. coli FKBP22) [4]) | Molecule | stoichiometry N (cross-linking) |
| --- | --- | --- | --- | --- | --- |
| 5.43 ± 0.57 µM | 5.41 ± 0.31 µM | 5.51 ± 0.26 µM | 5.06 ± 0.38 µM | CO[C@H]1C[C@@H]2CC[C@@H](C)[C@@](O)(O2)C(=O)C(=O)N2CCCC[C@H]2C(=O)O[C@H]([C@H](C)C[C@@H]2CC[C@@H](O)[C@H](OC)C2)CC(=O)[C@H](C)/C=C(\C)[C@@H](O)[C@@H](OC)C(=O)[C@H](C)C[C@H](C)/C=C/C=C/C=C/1C [rapamycin] | – |
| – | – | – | – | V72P, a rFKBP22 variant with a Val to Pro substitution at position 72 in the helix α3 (enzyme, Escherichia coli, UniProt P0A9L3 1-206, looked up) MTTPTFDTIEAQASYGIGLQVGQQLSESGLEGLLPEALVAGIADALEGKHPAVPVDVVHRALREIHERADAPRRQRFQAMAAEGVKYLEENAKKEGVNSTESGLQFRVINQGEGAIPARTDRVRVHYTGKLIDGTVFDSSVARGEPAEFPVNGVIPGWIEALTLMPVGSKWELTIPQELAYGERGAGASIPPFSTLVFEVELLEIL | 2 |
| – | – | – | – | A82P, a rFKBP22 derivative harboring an Ala to Pro change at position 82 in the helix α3 (enzyme, Escherichia coli, UniProt P0A9L3 1-206, looked up) MTTPTFDTIEAQASYGIGLQVGQQLSESGLEGLLPEALVAGIADALEGKHPAVPVDVVHRALREIHERADAVRRQRFQAMAPEGVKYLEENAKKEGVNSTESGLQFRVINQGEGAIPARTDRVRVHYTGKLIDGTVFDSSVARGEPAEFPVNGVIPGWIEALTLMPVGSKWELTIPQELAYGERGAGASIPPFSTLVFEVELLEIL | 2 |
